Data set [1] deals with T1, wild-type CD38 (cADPR hydrolase activity) (Homo sapiens, UniProt P28907, N100D/N164A/N209D/N219D).
T1 construct: Crystal structure of human CD38 extracellular domain; made in house
T1 sequence (P28907 45-300 N100D/N164A/N209D/N219D limits assumed): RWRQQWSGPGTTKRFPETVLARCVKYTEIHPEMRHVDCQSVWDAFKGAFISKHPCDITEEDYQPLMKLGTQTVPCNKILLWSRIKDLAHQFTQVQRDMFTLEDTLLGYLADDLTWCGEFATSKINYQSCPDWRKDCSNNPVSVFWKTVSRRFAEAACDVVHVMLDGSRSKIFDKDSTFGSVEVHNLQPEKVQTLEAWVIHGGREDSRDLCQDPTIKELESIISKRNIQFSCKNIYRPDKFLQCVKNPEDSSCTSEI
Briefly: Enzymatic assay for cADPR hydrolysis (inhibition of CD38-catalyzed cADPR hydrolysis, fluorimetric cycling assay). It counts as biochemical. The conditions noted are these: for Fold improvement of IC50 over N1-cIDPR (cADPR hydrolysis): relative to N1-cIDPR, IC50 276 µM. The protocol: The reaction was stopped by the addition of 150 mM HCl. The precipitated protein was filtered, and the pH was neutralized with Tris base. After diluting the mixture 20-fold, the concentration of the unhydrolyzed cADPR present in the diluted reaction mixture was assayed by the fluorimetric cycling assay as previously described.

Data set [2] has as its target T2, CD38 NAD+ glycohydrolase activity (Homo sapiens, UniProt P28907, N100D/N164A/N209D/N219D).
T2 construct: Crystal structure of human CD38 extracellular domain; made in house
T2 sequence (P28907 45-300 N100D/N164A/N209D/N219D limits assumed): T1 sequence (P28907 45-300 N100D/N164A/N209D/N219D limits assumed)
Briefly: Enzymatic assay for NAD+ hydrolase (NADase) activity of CD38. The data set is classed as biochemical. The conditions noted are these: 1 µM NAD+, 0.1 µg/mL CD38, 1 min, 20–24°C, pH 4.5; Figure S1; read-out: IC50, inhibition of NADase activity of CD38. Here is the method:
The reaction was stopped by addition of 150 mM HCl, filtered and assayed for NAD^+ by the fluorimetric cycling assay as previously described.

In another data set the target is T3, CD38 (Homo sapiens, UniProt P28907, N100D/N164A/N209D/N219D).
T3 construct: Crystal structure of human CD38 extracellular domain; made in house
T3 sequence (P28907 45-300 N100D/N164A/N209D/N219D limits assumed): T1 sequence (P28907 45-300 N100D/N164A/N209D/N219D limits assumed)
The data set is described as follows: Incubation with CD38, nucleotide profile by HPLC (stability towards cleavage). It counts as in vitro ADME. The conditions noted are these: HPLC after 18 h; data not shown.

The test system of a further data set is Jurkat T-cells. On the set-up: method as in PMID 15932322. The conditions noted are these: cited from earlier work.
Data set [3] has as its system sea urchin egg homogenate. On the set-up: method as in PMID 11535079. To be noted: cited from earlier work.
[4] abbreviates: 1 µM cADPR, 2 µg/mL CD38, pH 4.5, inhibitor tested 0–1 mM, read-out: IC50, inhibition of cADPR hydrolysis by CD38.
Setting [5] is: extrapolated beyond the tested range 0–1 mM, read-out: IC50, inhibition of cADPR hydrolysis, estimated by projection.
[6] abbreviates: 1 µM cADPR, 2 µg/mL CD38, 10 min, 20–24°C, pH 4.5, read-out: IC50, inhibition of cADPR hydrolysis by CD38.

Each structure is given as a SMILES string. pIC50: −log10 of the molar value. Like-named read-outs stand apart in the source and are kept apart here.

This is an account of results in publication PMC3686795, “CD38 Structure-Based Inhibitor Design Using the N1-Cyclic Inosine 5′-Diphosphate Ribose Template” (PLoS ONE, 2013).

The term pIC50 denotes −log10 of the IC50, conventionally taken in molar units.

As for `NCCCCNc1nc2c(=O)n3cnc2n1[C@@H]1O[C@H](COP(=O)(O)OP(=O)(O)OC[C@H]2O[C@@H]3[C@H](O)[C@@H]2O)[C@@H](O)[C@H]1O` [8-(4-Aminobutane)amino N1-cIDPR, 8-(4-aminobutane)amino N1-cIDPR], the figures for the pIC50 in data set [1] (setting [4]) and in data set [1] (setting [5]) were less than 3.00 and approximately 2.70, respectively.

`Nc1nc2c(=O)n([C@@H]3O[C@H](COP(=O)(O)O)[C@@H](O)[C@H]3O)cnc2[nH]1` [8-Amino N1-IMP, 8-amino N1-IMP]: the negative logarithm of the IC50 (pIC50) in data set [1] (setting [6]) was 5.12.

In the case of `Nc1nc2c(=O)n3cnc2n1[C@@H]1O[C@H](COP(=O)(O)OP(=O)(O)OC[C@H]2O[C@@H]3[C@H](O)[C@@H]2O)[C@@H](O)[C@H]1O` [8-Amino N1-cIDPR, 8-amino N1-cIDPR], the results for the negative-log IC50 (pIC50) in data set [1] (setting [6]) and in data set [2] were 4.25 and 4.68, respectively. In addition, the “Fold improvement of IC50 over N1-cIDPR (cADPR hydrolysis)” value in data set [1] is given as “over 5 fold”.

Regarding `O=c1c2nc(Br)[nH]c2ncn1[C@@H]1O[C@H](COP(=O)(O)O)[C@@H](O)[C@H]1O` [8-Bromo N1-IMP], in data set [1] (setting [6]), the pIC50 was 3.70.

Take `O=c1c2nc(Br)n3c2ncn1[C@@H]1O[C@H](COP(=O)(O)OP(=O)(O)OC[C@H]2O[C@@H]3[C@H](O)[C@@H]2O)[C@@H](O)[C@H]1O` [8-Bromo N1-cIDPR, 8-bromo N1-cIDPR]: the “Change in nucleotide profile after incubation with CD38” value at CD38 is reported as “no change in the nucleotide profile”.

Consider `O=c1c2nc(I)[nH]c2ncn1[C@@H]1O[C@H](COP(=O)(O)O)[C@@H](O)[C@H]1O` [8-Iodo N1-IMP, 8-iodo N1-IMP], for which the values for the negative-log IC50 (pIC50) in data set [1] (setting [4]) and in data set [1] (setting [5]) were less than 3.00 and approximately 2.91, respectively.

Turning to `O=c1c2nc[nH]c2ncn1[C@@H]1O[C@H](COP(=O)(O)O)[C@@H](O)[C@H]1O` [N1-IMP, N1-inosine 5′-monophosphate], the negative logarithm of the IC50 (pIC50) in data set [1] (setting [6]) was 4.85. In data set [1], the “Fold improvement of IC50 over N1-cIDPR (cADPR hydrolysis)” value is approximately 20 fold.

As to `O=c1c2ncn3c2ncn1[C@@H]1O[C@H](COP(=O)(O)OP(=O)(O)OC[C@H]2O[C@@H]3[C@H](O)[C@@H]2O)[C@@H](O)[C@H]1O` [N1-cIDPR, cyclic inosine 5′-diphosphoribose], the “Ca2+ release compared with cADPR” value in the data set with Jurkat T-cells is reported as “almost indistinguishable from Ca^2+ release induced by cADPR”.

For `N=c1c2ncn3c2ncn1[C@@H]1C[C@H](COP(=O)(O)OP(=O)(O)OC[C@H]2O[C@@H]3[C@H](O)[C@@H]2O)[C@@H](O)[C@H]1O` [cADPcR, cyclic ADP-carbocyclic ribose, reference compound], the negative-log IC50 (pIC50) in data set [1] (setting [6]) is 3.89. The “Ca2+ release activity” value in data set [3] is reported as “potent Ca^2+ release agent”.
